Activity calls are given as the source filed them. The rule behind the calls is not given here. Square brackets hold non-standard residues; d marks the D form. Peptide text beside a SMILES is read from it. * marks the point of attachment. ξ: configuration not given here. X1 = O=C(O)c1cc(N2C(=O)CC(*)C2=O)ccc1-c1c2ccc(=O)cc-2oc2cc(O)ccc12; Gly(N-piperonyl) = O=C(O)CNCc1ccc2c(c1)OCO2; Nrpe = C[C@@H](NCC(=O)O)c1ccccc1; Nleu = CC(C)CNCC(=O)O; Nlys = NCCCCNCC(=O)O; ξC = NC(CS)C(=O)O
These compounds were tested against Vascular endothelial growth factor receptor 2 (Homo sapiens) (UniProt P35968) (assay: Binding affinity to VEGFR2 extracellular domain).
Sequence of Vascular endothelial growth factor receptor 2 (Homo sapiens) (P35968 whole entry, the tested form may be a part): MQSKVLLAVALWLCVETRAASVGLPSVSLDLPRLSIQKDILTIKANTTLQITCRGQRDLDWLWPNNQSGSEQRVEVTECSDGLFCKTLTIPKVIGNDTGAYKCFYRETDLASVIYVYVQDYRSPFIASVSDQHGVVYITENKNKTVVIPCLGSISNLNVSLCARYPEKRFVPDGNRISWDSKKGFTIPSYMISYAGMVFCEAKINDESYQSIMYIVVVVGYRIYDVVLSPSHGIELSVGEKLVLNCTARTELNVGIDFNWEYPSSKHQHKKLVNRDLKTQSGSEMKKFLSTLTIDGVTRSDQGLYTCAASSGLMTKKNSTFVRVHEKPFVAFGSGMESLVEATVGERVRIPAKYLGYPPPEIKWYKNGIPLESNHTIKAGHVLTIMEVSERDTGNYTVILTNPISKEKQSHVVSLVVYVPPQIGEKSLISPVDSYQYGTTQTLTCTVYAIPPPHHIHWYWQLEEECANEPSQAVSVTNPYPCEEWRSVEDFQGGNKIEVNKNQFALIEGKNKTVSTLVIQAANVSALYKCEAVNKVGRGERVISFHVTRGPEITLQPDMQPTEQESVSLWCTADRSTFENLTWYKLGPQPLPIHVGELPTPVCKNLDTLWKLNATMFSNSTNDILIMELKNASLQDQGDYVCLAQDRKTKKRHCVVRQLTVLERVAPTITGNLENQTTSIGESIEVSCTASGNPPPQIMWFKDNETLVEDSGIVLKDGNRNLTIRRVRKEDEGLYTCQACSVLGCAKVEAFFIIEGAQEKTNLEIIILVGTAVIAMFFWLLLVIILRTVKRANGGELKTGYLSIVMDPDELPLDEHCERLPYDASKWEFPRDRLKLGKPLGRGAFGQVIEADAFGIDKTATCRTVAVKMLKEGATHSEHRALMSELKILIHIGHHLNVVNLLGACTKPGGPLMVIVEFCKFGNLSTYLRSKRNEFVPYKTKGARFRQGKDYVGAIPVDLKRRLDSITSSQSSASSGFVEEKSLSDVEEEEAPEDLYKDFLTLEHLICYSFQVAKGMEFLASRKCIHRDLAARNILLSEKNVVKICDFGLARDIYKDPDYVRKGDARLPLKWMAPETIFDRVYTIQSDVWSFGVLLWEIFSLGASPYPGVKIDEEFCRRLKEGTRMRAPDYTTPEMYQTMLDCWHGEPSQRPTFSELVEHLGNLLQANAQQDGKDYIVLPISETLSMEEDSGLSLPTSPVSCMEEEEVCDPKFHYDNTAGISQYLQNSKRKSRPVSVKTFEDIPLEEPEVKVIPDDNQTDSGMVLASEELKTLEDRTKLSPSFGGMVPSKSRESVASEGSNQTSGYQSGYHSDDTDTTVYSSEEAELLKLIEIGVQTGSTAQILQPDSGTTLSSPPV

Activity	SMILES
Active	CC(C)CN(CC(=O)N(CCCCN)CC(=O)N(CC(=O)NCC(=O)NCC(=O)NCC(=O)NCC(=O)NCC(=O)NC(CSC1CC(=O)N(c2ccc(-c3c4ccc(=O)cc-4oc4cc(O)ccc34)c(C(=O)O)c2)C1=O)C(N)=O)[C@H](C)c1ccccc1)C(=O)CN (stereo partly drawn) (H-G[Nleu][Nlys][Nrpe]GGGGG[ξC](X1)-NH2)
inactive	CC(C)CN(CC(=O)N(CCCCN)CC(=O)N(CC(=O)NC(CSC1CC(=O)N(c2ccc(-c3c4ccc(=O)cc-4oc4cc(O)ccc34)c(C(=O)O)c2)C1=O)C(N)=O)[C@H](C)c1ccccc1)C(=O)CN (stereo partly drawn) (H-G[Nleu][Nlys][Nrpe][ξC](X1)-NH2)
Active	CC(C)CN(CC(=O)N(CCCCN)CC(=O)N(CC(=O)N(CC(=O)N(CCCCN)CC(=O)N(CC(=O)N(CCCCN)CC(=O)N(CCCCN)CC(N)=O)CC(C)C)Cc1ccc2c(c1)OCO2)[C@H](C)c1ccccc1)C(=O)CNCCCCN (H-[Nlys][Nleu][Nlys][Nrpe][Gly(N-piperonyl)][Nlys][Nleu][Nlys][Nlys]-NH2)
